One data set relates to NuTu-19 cells. The data set can be described thus: Exemplary in vivo assay: pre-established NuTu-19 tumors in Fischer rats. To be noted: for tumor growth: in drinking water ad libitum, administered 21-28 days to tumor bearing rats. The method, then:
In another embodiment, the reagents and methods of the invention can be used to promote tumor regression in vivo in immunocompetent animals carrying pre-established tumors; i.e., the reagents of the invention can be used to treat animals with pre-existing tumors. In this case, the cancerous 10^6 NuTu-19 cells are injected subcutaneously in the flank of the Fischer rats to establish tumors.

Data set [1] concerns telomerase positive cell lines. The data set can be described thus: DNA content by PI staining at later stages of treatment. To be noted: compared to untreated cells, cell line not specified. In kind it is cell-based. The method, then:
A rational explanation of this fact is a short telomere induced chromosome end-to-end joining^25.
(§1) The origin of the cell lines are uterine cervix (HeLa) and epithelial ovarian (NuTu-19). Cells were cultured in D-MEM media supplemented with 10% fetal calf serum at 37° C. in a humidified atmosphere of 5% CO2. For treatment of the cells with GCV, the media was supplemented with 1.5 µM of GCV (Cymevene, Hoffman-La Roche). For treatment of the cells with ACV, the media was supplemented with 3 µM of Aciclovir (Aciclovir, TEVA Pharm. Ind. Ltd, Israel).
(§2) For telomere length measurement by flow cytometry, cells were stained with telomere specific FITC conjugated (C3TA2)3 PNA (Applied Biosystems) probe and contrastained with 0.06 µg/ml PI as described by Rufer, N., Dragowska, W., Thornbury G., Roosnek, B., Lansdorp P. M. Telomere length dynamics in human lymphocyte subpopulations […]. Nat. Biotechnol. 16, 743-747 (1998)).

Data set [2] concerns NuTu-19 cell line. The experiment in a line: Cell cycle distribution and apoptosis by propidium iodide staining and flow cytometry. Type of data set: cell-based. The method, then:
(§3) Telomere length in GCV and ACV treated and untreated cell lines was measured by flow cytometry with a telomere-specific peptide nucleic acid (PNA) probe^23,24. To determine cell cycle distribution, cells were stained with propidium iodide (PI)^23.
(§4) It is important to note that changes were rapid and could be detected after only 14 days of ACV treatment. In contrast, the nucleoside analog, AZT had no effect on telomere length or cell cycle distribution in telomerase positive cells, HeLa and NuTu-19, even at elevated concentrations e.g., 100 µM (data not shown).
as §1, §2
In general terms: In flow cytometry, cells or beads pass a laser one at a time.

Data set [3] concerns NuTu-19 cell line. The experiment in a line: Telomere length by flow cytometry with telomere-specific PNA probe. Type of data set: cell-based. To be noted: for telomere length: NuTu-19, GCV 1.5 μM or ACV 3.0 μM, 14 days. The method, then: as §3, §1, §2
Data set [4] has as its system HeLa cell line. The experiment in a line: Cell cycle distribution and apoptosis by propidium iodide staining and flow cytometry. In kind it is cell-based, human. The method, then: as §3, §4, §1, §2
The test system of data set [5] is HeLa cell line. The experiment in a line: Telomere length by flow cytometry with telomere-specific PNA probe. Type of data set: cell-based, human. The method, then:
as §3, §1, §2

For data set [6] the following is noted: single oral dose of 300 mg; cited from earlier work.
The next data set deals with mammalian cells. To be noted: short-time exposure, 5 μM, in vitro and in vivo; cited from earlier work.
For data set [7], the system named is telomerase positive cell lines. The note with it: prolonged exposure, cited from earlier work.
The next data set deals with HeLa cells. The experiment in a line: Nude mice injected s.c. with HeLa cells, Valcyte in drinking water. Type of data set: in vivo. The procedure:
Human cancer HeLa cell culture was purchased from ATCC. In all, 12 CD1/-nu and 12 NMRiJI-nu nude mice were purchased from Charles River Laboratories, Charles River Deutschland GmbH. These nude mice were injected s.c. with […] HeLa cells. Experimental group received valganciclovir in drinking water from day 0. Specifically, mice in the experimental groups (6 mice per strain) were exposed to Valcyte (val-ganciclovir) in drinking water (1 mg/ml) from day 0. […] In about 14 days, all mice were bearing the tumors.

[8] abbreviates: NuTu-19, GCV 1.5 μM or ACV 3.0 μM, 14 days.
Where [9] appears, read: GCV 1.5 μM or ACV 3.0 μM, 14 days.
[10] abbreviates: NuTu-19, even at elevated concentrations e.g. 100 μM (data not shown).
Where [11] appears, read: even at elevated concentrations e.g. 100 μM (data not shown).

Entries after “also recorded” stand apart in the source; their conditions may differ. Where two headings read alike, the source gives them in different places. Where only a bound is given, the exact number is not on record here.

Regarding `Nc1nc2c(ncn2COCCO)c(=O)[nH]1` [ACV, 9-[2(hydromethoxy)-methyl] guanine], the tumor growth entry in the data set on NuTu-19 cells is “retarded tumor growth”. Further, the “DNA content (PI staining)” value in [1] is listed as “higher DNA content”. The apoptosis entry in the data set with NuTu-19 cell line [2] (setting [8]) and in the data set with HeLa cell line [4] (setting [9]) was “massive apoptosis” in each case. Further, the cell cycle distribution result with NuTu-19 cell line [2] (setting [8]) is “changes in cell cycle; also recorded: G2 arrest”; with HeLa cell line [4] (setting [9]) it was “G2 arrest”. For the same compound, the telomere length entry in the data set with NuTu-19 cell line [3] was “decrease in telomere length; also recorded: telomere shortening”; in the data set on HeLa cell line [5] (setting [9]) it was “telomere shortening”.
As for `Cc1cn([C@H]2C[C@H](N=[N+]=[N-])[C@@H](CO)O2)c(=O)[nH]c1=O` [AZT, 3′-azido-2′,3′-dideoxythymidine], the peak serum concentration entry in data set [6] is listed as “less than 10 μM”. Further, the time of absorption in [6] is recorded as no more than 0.5 h. Also, the “toxic effects on mammalian cells” value in the data set on mammalian cells was “induces undesirable toxic effects”. Besides, the telomere shortening result in [7] (100 μM (Murakami et al. 1999)) and in [7] (800 μM (Gomez et al. 1998; Tejera et al. 2001)) was “failed to induce any significant telomere shortening” throughout. Also, the “effect on cell cycle distribution” value with NuTu-19 cell line [2] (setting [10]) and with HeLa cell line [4] (setting [11]) was “no effect” throughout. In addition, the “effect on telomere length” value with NuTu-19 cell line [3] (setting [10]) and in the data set on HeLa cell line [5] (setting [11]) was “no effect” each time.
For `CC(C)[C@H](N)C(=O)OCC(CO)OCn1cnc2c(=O)nc(N)[nH]c21` (stereo partly drawn) [Valcyte, valganciclovir], the tumor development result with HeLa cells (1 mg/ml in drinking water from day 0, all mice bearing tumors in about 14 days) is “All mice in control and treated groups had developed tumors”. The tumor regression entry with HeLa cells (one mouse from the treated group, by about the 30th day, monotherapy, 1 mg/ml in drinking water) is given as “this tumor was eliminated”. Besides, in the data set with HeLa cells (other mice in the treated groups, 1 mg/ml in drinking water), the tumor growth entry is on record as “slowing of tumor growth (stabilization)”.
`Nc1nc(O)c2ncn(COC(CO)CO)c2n1` [GCV, ganciclovir] yielded a survival in the data set with NuTu-19 cells (few weeks after the start of the treatment) of 100%. For the same compound, the tumor growth result in the data set on NuTu-19 cells is listed as “retarded tumor growth”. Further, in data set [1], the “DNA content (PI staining)” value is on record as “higher DNA content”. Further, the cell cycle distribution result was “changes in the cell cycle distribution” with NuTu-19 cell line [2] (NuTu-19, 1.5 μM GCV, 10 days (FIG. 3)); “G2 arrest” in the data set with NuTu-19 cell line [2] (setting [8]); “changes in the cell cycle distribution” in the data set with HeLa cell line [4] (1.5 μM GCV, 10 days (FIG. 1, FIG. 3)); “G2 arrest” with HeLa cell line [4] (setting [9]). In addition, the apoptosis result is listed as “massive apoptosis” in the data set with NuTu-19 cell line [2] (setting [8]); “massive apoptosis” in the data set with HeLa cell line [4] (1.5 μM GCV, 10 days (FIG. 1)); “massive apoptosis” with HeLa cell line [4] (setting [9]). In addition, the telomere length result is “telomere shortening” in the data set with NuTu-19 cell line [3]; “decrease in telomere length” in the data set with HeLa cell line [5] (1.5 μM GCV, 10 days, vs untreated cells (FIG. 1)); “telomere shortening” with HeLa cell line [5] (setting [9]).

The values above are taken from patent US8580753B2, “Modulation of telomere length in telomerase positive cells and cancer therapy” (ALT Solutions Inc., priority 2005, dated 2013).
